Experimental data: the METLIN SMRT retention time set (Domingo-Almenara et al. 2019)

Experiment: gradient 5% acetonitrile 3 min, to 50% in 2 min, to 85% in 15 min, held 3 min, 100 µL/min
Settings: column: Zorbax Extend-C18 2.1 x 50 mm; eluents: water / acetonitrile, 0.1% formic acid
Summary of the method: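 A Zorbax Extend-C18 column (2.1 × 50 mm, 1.8 μm) run at 100 μL/min with water and acetonitrile, both containing 0.1% formic acid, separated mixtures of ~100 pure standards. The HPLC was coupled to a quadrupole time-of-flight mass spectrometer operated in positive and negative ionization mode, with dead and dwell volumes of 40 μL and 900 μL. Each retention time was taken from a computationally picked adduct peak that was then manually inspected.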

| SMILES | RP-LC retention time |
| --- | --- |
| COCCn1cc(CCNC(=O)Nc2ccc(Br)cc2)c2cccnc21 | 778 s |
| O=C(Nc1nc2ccccc2n1CCN1CCOCC1)c1ccc(Cl)cc1 | 633 s |
| O=C(NC1CCN(Cc2ccccc2)CC1)C1CCCN(c2ncnc3c2nc2n3CCCCC2)C1 (centres undefined) | 1050 s |
| CSc1cccc(NC(=O)C2CCCN(c3nnc(C)c4c(C)n(-c5ccccc5)nc34)C2)c1 (centres undefined) | 798 s |
| Cc1nn(C)c(C)c1CCN(C)c1ccc(C(=O)O)cc1NC(=O)c1ccc(Cl)cc1 | 780 s |
| CN1C(=O)c2cc(C(=O)NCc3ccccc3)nn2CC1(C)C(=O)NCc1ccccc1 (centres undefined) | 685 s |
| CCOC(=O)c1c(C)oc2ncnc(NCCc3c[nH]c4ccccc34)c12 | 1050 s |
| Cc1cccc(N2CCN(C(=O)c3cn4ccccc4n3)CC2)c1C | 776 s |
| CC1(C(=O)NCc2ccccc2)CN(S(C)(=O)=O)CC(=O)N1c1cccc(F)c1 (centres undefined) | 710 s |
| O=C(c1ccc(N2CCCCS2(=O)=O)cc1)N1CCN(C(=O)c2ccco2)CC1 | 609 s |
| CCC1CN2C=NC(N3CCN(S(=O)(=O)Cc4cccc(F)c4)CC3)=CC2=N1 (centres undefined) | 680 s |
| Cc1ccc(C)c(CNC(=O)c2ccc3c(c2)nc2n3CCN(C(C)C)C2=O)c1 | 769 s |
| O=C(CN1c2ccc(F)cc2-c2ccccc2S1(=O)=O)Nc1ccc(F)cc1 | 948 s |
| O=C(CCNc1cnc2cnccn12)NCc1ccc2c(c1)OCO2 | 564 s |
| CNC(=O)c1sc(-c2ccccc2)nc1C | 726 s |
| Cc1ccc(NC(=O)Cn2cnc(C)c(C)c2=O)c(F)c1 | 667 s |
| CCn1c(N2CCCC(C(=O)N3CCN(Cc4ccc5c(c4)OCO5)CC3)C2)cc(=O)n(C)c1=O (centres undefined) | 616 s |
| O=C(CN1CCN(Cc2ccccc2)C1=O)NCc1ccccc1Br | 824 s |
| Cn1cnc2c(C(=O)N3CCN(C4CCCCC4)CC3)nn(-c3ccc(Cl)cc3)c2c1=O | 654 s |
| Cc1ccc(C2Cn3cnc(C(=O)N4CCC(C(=O)NCc5ccccc5)CC4)c3CO2)cc1 (centres undefined) | 796 s |
| CC(C)Cn1cc(CCNC(=O)Nc2cccc(Cl)c2)c2cccnc21 | 895 s |

| SMILES | RP-LC retention time |
| --- | --- |
| CCC(C)(C)NC(=O)C1CCCN(S(=O)(=O)c2c[nH]c(C(=O)N3CCCCCC3)c2)C1 (centres undefined) | 871 s |
| Cn1nc(C(=O)N2CCOCC2)c2c1CCN(C(=O)Nc1ccc(F)cc1F)C2 | 653 s |
| c1ccc(N2CCN(c3ccc4nncn4n3)CC2)nc1 | 537 s |
| CC(CCc1ccccc1)NC(=O)c1ccccc1NC(=O)C1=CSCCO1 (centres undefined) | 1080 s |
| CC(=O)Nc1ccc(C(=O)NCCNC(=O)Nc2cccs2)cc1 | 600 s |
| COc1ccc(NC(=O)N2CCCC(Cn3cnc4cccnc43)C2)cc1OC (centres undefined) | 620 s |
| CC1CCCN(CCCNC(=O)C2CCN(S(=O)(=O)c3ccc4c(c3)sc(=O)n4C)CC2)C1 (centres undefined) | 612 s |
| O=S(=O)(Cc1ccccc1Cl)N1CCC(CN2CCCCCC2)CC1 | 675 s |
| Cc1cccc(NS(=O)(=O)c2cc(-c3[nH]ncc3C(=O)N3CCCCC3)oc2C)c1C | 822 s |
| O=C(NCc1ccccc1)c1csc(Nc2ccncn2)n1 | 687 s |
| CC(C)Oc1ccccc1CN1C[C@@H]2C(=O)N(C)C(=O)[C@@H]2C1 | 616 s |
| COc1ncc(C(=O)Nc2cccc(F)c2)c(C)n1 | 757 s |
| Cc1ccc(CNC(=O)c2ccc(NC(=O)C3CC3)cc2N2CCOCC2)o1 | 768 s |
| CCCC(=O)Nc1ccc2c(c1)CCC(=O)N2CCOC | 654 s |
| COc1ccccc1N1CCN(c2ccnc(SCC(=O)Nc3ccccc3C)n2)CC1 | 666 s |
| Cc1cc2c(=O)n(CC(=O)Nc3cccc(Cl)c3)ccc2s1 | 832 s |
| COc1ccc(NC(=O)C2CC(=O)N(c3ccc4c(c3)CCN4C(C)=O)C2)cc1OC (centres undefined) | 642 s |
| COc1ccc(NC(=O)c2c(O)c3cccnc3n(-c3ccc(F)cc3)c2=O)cc1Cl | 1250 s |
| CCN1C(=O)c2cc(C(=O)Nc3cccc(F)c3)nn2CC1(C)C(=O)NC1CCCC1 (centres undefined) | 834 s |
| CCCNC(=O)C1CCN(c2ccc(SCC(=O)NCc3cccs3)nn2)CC1 | 602 s |
| COc1ccc(-c2cn3c(CC(=O)N4CCCCC4)csc3n2)cc1OC | 666 s |

| SMILES | RP-LC retention time |
| --- | --- |
| CCc1nc2cccnc2n1CCN1CCN(C(=O)Nc2ccc(Br)cc2F)CC1 | 624 s |
| COc1cc(NC(=O)N2CCN(C)c3ncccc32)cc(OC)c1OC | 584 s |
| CCCCN1CCN(Cc2nc(-c3ccc(N4CCSCC4)nc3)no2)CC1 | 653 s |
| COCCNC(=O)CS(=O)Cc1cnn(-c2ccccc2)c1-n1cccc1 (centres undefined) | 678 s |
| CCc1ccccc1N1C(=O)CN(S(C)(=O)=O)CC1(C)C(=O)NCc1ccc(C)cc1 (centres undefined) | 860 s |
| O=C(CCc1nc2ccccc2n(CC(=O)Nc2cc(F)ccc2F)c1=O)NCc1ccccc1 | 884 s |
| CSc1nnc(NC(=O)c2cc(Cl)ccc2Cl)s1 | 808 s |
| CCCN1N=C(C(=O)N2CCC(C)CC2)S(=O)(=O)c2ccc(C)cc21 | 993 s |
| Cc1ccc(Cl)cc1NC(=O)C1CCN(S(=O)(=O)c2cc3c(cc2C)NC(=O)CO3)CC1 | 863 s |
| COCCN1C(=O)c2cccn2CC1CNC(=O)c1ccc(Cc2c(C)noc2C)o1 (centres undefined) | 679 s |
| CCN1C(=O)C2(CCN(C(=O)c3ccc(OC(C)C)cc3)CC2)c2ccccc21 | 1020 s |
| CC1CCCCC1NC(=O)C1(C)Cn2c(cc3occc32)C(=O)N1Cc1cccnc1 (centres undefined) | 659 s |
| O=C(C1CCC(=O)N1S(=O)(=O)c1ccccc1)N1CCCCC1 (centres undefined) | 757 s |
| CC1(C(=O)NCc2ccccc2)CCCN(C(=O)Nc2ccccc2Br)C1 (centres undefined) | 947 s |
| O=C(NCC1CCCO1)c1ccc2ncnc(N3CCCCC3)c2c1 (centres undefined) | 594 s |
| NC(=O)[C@@H]1C[C@H](Oc2cccnc2)CN1C(=O)Cn1c(=O)oc2ccccc21 | 564 s |
| COCCNC(=O)C1CCCN(c2nccnc2Sc2ccccc2)C1 (centres undefined) | 810 s |
| O=C(NC1CCCC1)C1CCc2sc(C(=O)N3CCCC3)cc2C1 (centres undefined) | 777 s |
| c1cncc(-c2noc(COC3CCCN(C4CCCC4)C3)n2)c1 (centres undefined) | 585 s |

Now from value to compound:

| RP-LC retention time | SMILES |
| --- | --- |
| 840 s | Cc1ccc(N2C=NS(=O)(=O)c3cccnc32)cc1C |
| 834 s | Cc1ccc(CNc2c(-c3ccc(C)c(C)c3)nc3ncccn23)cc1 |
| 817 s | c1ccc(-c2nc(CSc3cc(N4CCOCC4)ncn3)cs2)cc1 |
| 1330 s | Cc1cc(C)c(C)c(S(=O)(=O)N2CCCC2c2nc(-c3ccccc3)no2)c1C (centres undefined) |
| 1160 s | O=S(=O)(c1cccc(Br)c1)N1CCc2nc(-c3ccc(F)cc3)ncc2C1 |
| 1020 s | Cc1ccc(CC(=O)N2CCc3cc(-c4ccno4)ccc32)cc1 |
| 1330 s | c1ccc(OCc2nc(-c3cccc(-c4csc(C5CC5)n4)c3)no2)cc1 |
| 975 s | Cc1c(Cl)cccc1Nc1c(-c2ccc3c(c2)OCO3)nc2cnccn12 |
| 845 s | CCc1ccccc1NC(=O)Cc1csc2nc(-c3ccccc3)cn12 |
| 878 s | CCC(Sc1nc(=O)cc(N)n1CCc1ccccc1)C(=O)Nc1nc(-c2ccccc2)cs1 (centres undefined) |
| 1070 s | Cc1ccc(S(=O)(=O)N2CCCC2)cc1-c1nnc(-c2ccccc2Cl)o1 |
| 934 s | COc1ccc(-c2noc(C3CCCN3C(=O)c3ccc(Cl)cc3OC)n2)cc1OC (centres undefined) |
| 931 s | COc1cccc(C(=O)CSc2ccc(-n3nc(C)cc3C)nn2)c1 |
| 909 s | CCc1nn2c(CNC(=O)c3cccc(F)c3)c(-c3ccccc3)nc2s1 |
| 1020 s | O=C(Cn1cnc2c(sc3nc(-c4ccccc4)ccc32)c1=O)Nc1ccccc1Cl |
| 844 s | COc1cccc(CNC(=O)c2c(C)oc3ccn(C)c(=O)c23)c1 |
| 817 s | COc1ccccc1-c1noc(CCn2nc(-c3ccccc3)ccc2=O)n1 |
| 839 s | c1cc(-c2noc(-c3ccoc3)n2)cc(-c2ccn[nH]2)c1 |
| 672 s | Cc1nnc2c(N3CCN(c4ccccn4)CC3)nc3ccc(C(=O)c4ccccc4)cc3n12 |
| 765 s | O=S(=O)(NCc1nc(-c2cccc(-c3ccn[nH]3)c2)no1)c1ccc(F)cc1 |
| 1220 s | COc1ccc(CNc2ccc(-c3nc(-c4ccc(F)cc4)no3)cn2)cc1 |
| 774 s | O=C(Cn1c(=O)c2cccn2c2ccc(F)cc21)NCCc1ccco1 |
| 992 s | CCn1cc(-c2nc(CC(=O)Nc3ccc(F)cc3F)cs2)c2cccnc21 |
| 1040 s | Cc1ncoc1C(=O)N1CC(Oc2ccc(-c3nc(-c4ccccc4)no3)cc2)C1 |
| 576 s | CCOc1ccc(-c2ccc(=O)n(Cc3nc(-c4ccc(C)c(C)c4)no3)n2)cc1 |
| 774 s | CCn1cnc2ccc(-c3noc(Cc4ccccc4Cl)n3)cc21 |
| 626 s | O=C(NC1CCN(c2cc(-c3ccc(Cl)cc3)[nH]n2)C1)c1ccc2nc[nH]c2c1 (centres undefined) |
| 885 s | Cc1cc(=O)n(CC(=O)Nc2ccc(Br)cc2)c(N2CCc3ccccc3C2)n1 |
